Like-named read-outs stand apart in the source and are kept apart here.
Columns and labels:
human CB1 receptor = human CB1 receptor (Homo sapiens (Human), UniProt P21554); experiment: Radioligand binding assay, [3H]-CP-55,940, HEK cell membranes expressing human CNR1
Procedure: (§1) Radioligand Binding Assay
(§2) The affinity of the compounds of the invention for cannabinoid receptors was determined using recommended amounts of membrane preparations (PerkinElmer) of human embryonic kidney (HEK) cells expressing the human CNR1 or CNR2 receptors in conjunction with 1.5 or 2.6 nM [3H]-CP-55,940 (Perkin Elmer) as radioligand, respectively. Binding was performed in binding buffer (50 mM Tris, 5 mM MgCl2, 2.5 mM EDTA, and 0.5% (wt/vol) fatty acid free BSA, pH 7.4 for CB1 receptor and 50 mM Tris, 5 mM MgCl2, 2.5 mM EGTA, and 0.1% (wt/vol) fatty acid free BSA, pH 7.4 for CB2 receptor) in a total volume of 0.2 mL for 1 h at 30° C. shaking. The reaction was terminated by rapid filtration through microfiltration plates coated with 0.5% polyethylenimine (UniFilter GF/B filter plate; Packard). Bound radioactivity was analyzed for Ki using nonlinear regression analysis (Activity Base, ID Business Solution, Limited), with the Kd values for [^3H]CP55,940 determined from saturation experiments.

human CB2 receptor = human CB2 receptor (Homo sapiens (Human), UniProt P34972); experiment: Radioligand binding assay, [3H]-CP-55,940, HEK cell membranes expressing human CNR2
Chain of human CB2 receptor (P34972 whole entry): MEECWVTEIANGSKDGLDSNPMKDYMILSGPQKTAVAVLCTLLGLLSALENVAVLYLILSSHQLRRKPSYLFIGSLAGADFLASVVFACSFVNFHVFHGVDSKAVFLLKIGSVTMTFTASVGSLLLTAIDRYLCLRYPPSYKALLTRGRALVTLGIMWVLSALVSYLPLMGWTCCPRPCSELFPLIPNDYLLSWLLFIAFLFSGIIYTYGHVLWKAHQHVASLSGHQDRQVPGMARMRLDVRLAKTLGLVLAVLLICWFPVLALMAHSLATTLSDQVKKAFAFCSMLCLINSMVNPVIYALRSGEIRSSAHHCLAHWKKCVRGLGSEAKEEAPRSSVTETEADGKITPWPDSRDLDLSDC
Procedure: as §1, §2

[1] = membranes of HEK cells expressing human CNR1, 1.5 nM [3H]-CP-55,940, 1 h at 30° C., read-out: human CB1 Ki
[2] = membranes of HEK cells expressing human CNR2, 2.6 nM [3H]-CP-55,940, 1 h at 30° C., read-out: human CB2 Ki

Chain of human CB1 receptor (P21554 whole entry): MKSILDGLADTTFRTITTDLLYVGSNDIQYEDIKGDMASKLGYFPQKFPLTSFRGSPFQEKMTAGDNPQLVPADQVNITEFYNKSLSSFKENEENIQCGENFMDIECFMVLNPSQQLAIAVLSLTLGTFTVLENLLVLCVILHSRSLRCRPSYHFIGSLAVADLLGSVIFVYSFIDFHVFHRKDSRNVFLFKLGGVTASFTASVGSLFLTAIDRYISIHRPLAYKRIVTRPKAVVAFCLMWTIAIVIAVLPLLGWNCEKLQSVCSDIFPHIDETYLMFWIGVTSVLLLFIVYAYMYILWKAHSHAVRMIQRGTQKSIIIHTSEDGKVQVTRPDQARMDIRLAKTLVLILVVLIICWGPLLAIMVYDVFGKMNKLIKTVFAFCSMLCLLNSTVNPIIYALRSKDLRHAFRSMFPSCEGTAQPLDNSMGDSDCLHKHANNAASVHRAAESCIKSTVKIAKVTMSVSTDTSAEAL

CC(C)(C)c1nc(N2CCC(F)(F)C2)c2nn(Cc3ccccc3CN=C=S)nc2n1 [Example 6, 5-tert-Butyl-7-(3,3-difluoropyrrolidin-1-yl)-2-{[2-(isothiocyanatomethyl)phenyl]methyl}-2H-[1,2,3]triazolo[4,5-d]pyrimidine]
Ki (human CB1 receptor; [1]): 4.88 µM
Ki (human CB2 receptor; [2]): 211 nM

CC(C)(C)c1nc(N2CCC(F)(F)C2)c2nn(Cc3ccccc3N=C=S)nc2n1 [Example 4, 5-tert-Butyl-7-(3,3-difluoropyrrolidin-1-yl)-2-[(2-isothiocyanatophenyl)methyl]-2H-[1,2,3]triazolo[4,5-d]pyrimidine]
Ki (human CB1 receptor; [1]): > 10 µM
Ki (human CB2 receptor; [2]): 453 nM

CC(C)(C)c1nc(N2CC[C@H](O)C2)c2nn(Cc3ccccc3CN=C=S)nc2n1 [Example 3, (3S)-1-(5-tert-Butyl-2-{[2-(isothiocyanatomethyl)phenyl]methyl}-2H-[1,2,3]triazolo[4,5-d]pyrimidin-7-yl)pyrrolidin-3-ol]
Ki (human CB1 receptor; [1]): > 10 µM
Ki (human CB2 receptor; [2]): 529 nM

C#Cc1cccc(S(=O)(=O)F)c1Cn1nc2nc(C(C)(C)C)nc(N3CCC(F)(F)C3)c2n1 [Example 7, 2-[[5-tert-Butyl-7-(3,3-difluoropyrrolidin-1-yl)triazolo[4,5-d]pyrimidin-2-yl]methyl]-3-ethynylbenzenesulfonyl fluoride]
Ki (human CB1 receptor): > 10 µM
Ki (human CB2 receptor): 421 nM

CC(C)(C)c1nc(N2CC[C@H](O)C2)c2nn(Cc3ccccc3S(=O)(=O)F)nc2n1 [Example 1, 2-({5-tert-Butyl-7-[(3S)-3-hydroxypyrrolidin-1-yl]-2H-[1,2,3]triazolo[4,5-d]pyrimidin-2-yl}methyl)benzene-1-sulfonyl fluoride]
Ki (human CB1 receptor): > 10 µM
Ki (human CB2 receptor): 1160 nM

CC(C)(C)c1nc(N2CCC(F)(F)C2)c2nn(Cc3ccccc3CS(=O)(=O)F)nc2n1 [Example 2, (2-{[5-tert-Butyl-7-(3,3-difluoropyrrolidin-1-yl)-2H-[1,2,3]triazolo[4,5-d]pyrimidin-2-yl]methyl}phenyl)methanesulfonyl fluoride]
Ki (human CB1 receptor): > 10 µM
Ki (human CB2 receptor): 637 nM

CC(C)(C)c1nc(N2CCC(F)(F)C2)c2nn(Cc3ccccc3S(=O)(=O)F)nc2n1 [Example 5, 2-{[5-tert-Butyl-7-(3,3-difluoropyrrolidin-1-yl)-2H-[1,2,3]triazolo[4,5-d]pyrimidin-2-yl]methyl}benzene-1-sulfonyl fluoride]
Ki (human CB1 receptor): > 10 µM
Ki (human CB2 receptor): 361 nM

Source: patent publication US10450321B2, “[1,2,3]triazolo[4,5-D]pyrimidine derivatives” (Hoffmann-La Roche Inc., priority 2016, dated 2019)
